One experiment relates to Lactococcus lactis. Description: Antibacterial activity against Lactococcus lactis MG1614 by agar diffusion assay. The format is functional. In general terms: A growth-free zone around the sample is the usual read-out of agar diffusion tests.
Experiment [1] concerns Micrococcus luteus. Description: Antibacterial activity against Micrococcus luteus […] 8166 by agar diffusion assay. The experiment is classed as functional.
Experiment [2] relates to Staphylococcus aureus. Description: Antibacterial activity against Staphylococcus aureus SG511 after 18 hrs by broth microdilution method. The note with it: SG511, 18 h. The format is functional. (In broth dilution the organism is exposed to a series of concentrations in liquid medium.)
Experiment [3] deals with Staphylococcus aureus. Briefly: Ratio of MIC for Staphylococcus aureus 137/93A to MIC for Staphylococcus aureus SG511. The experiment is classed as functional.
Experiment [4] relates to Enterococcus faecium. Briefly: Antibacterial activity against Enterococcus faecium ATCC 19579 after 18 to 20 hrs by agar well diffusion method. The experiment is classed as functional.
The test system of experiment [5] is Micrococcus luteus. Briefly: Antibacterial activity against Micrococcus luteus ATCC 4698 after 18 to 20 hrs by agar well diffusion method. The format is functional. The note with it: NCTC 2665.
The next experiment has as its system Streptococcus pneumoniae. Briefly: Antibacterial activity against Streptococcus pneumoniae BAA-255 after 18 to 20 hrs by agar well diffusion method. The experiment is classed as functional.
The test system of experiment [6] is Enterococcus faecium. Description: Antibacterial activity against vancomycin-resistant Enterococcus faecium 7131121 after 18 to 20 hrs by agar well diffusion method. The experiment is classed as functional.
Experiment [7] deals with Staphylococcus aureus. Briefly: Antibacterial activity against Staphylococcus aureus 137/93G after 18 hrs by broth microdilution method. The experiment is classed as functional.
The nature of experiment [8]: Ratio of MIC for Enterococcus faecalis ATCC 29212 to MIC for Enterococcus faecium ATCC 19579. The format is functional.
For experiment [9], the system named is Staphylococcus aureus. Briefly: Antibacterial activity against Staphylococcus aureus SH1000 after 18 to 20 hrs by agar well diffusion method. The experiment is classed as functional.
The subject of experiment [10] is Staphylococcus epidermidis. Description: Antibacterial activity against Staphylococcus epidermidis NCTC 11047 after 18 to 20 hrs by agar well diffusion method. The format is functional.
For experiment [11], the system named is Enterococcus faecalis. Description: Antibacterial activity against Enterococcus faecalis ATCC 29212 after 18 to 20 hrs by agar well diffusion method. The format is functional.
Experiment [12] concerns Staphylococcus aureus. Briefly: Antibacterial activity against Staphylococcus aureus 137/93A after 18 hrs by broth microdilution method. The format is functional.
In experiment [13] the test system is Staphylococcus aureus. Description: Antibacterial activity against methicillin-resistant Staphylococcus aureus R33 after 18 to 20 hrs by agar well diffusion method. The format is functional.
Experiment [14] relates to Bacillus subtilis. Description: Antibacterial activity against Bacillus subtilis BSn5 after 120 mins by agar well diffusion method. The experiment is classed as functional. Conditions: BSn5, 2 h.
Experiment [15] has as its system Enterococcus faecalis. Description: Antibacterial activity against Enterococcus faecalis Bom3 after 120 mins by agar well diffusion method. The format is functional. Conditions: Bom3, 2 h.
Experiment [16] has as its system Bacillus thuringiensis. Description: Antibacterial activity against Bacillus thuringiensis YBT-1518 after 120 mins by agar well diffusion method. The experiment is classed as functional. Conditions: YBT-1518, 2 h.
Experiment [17] deals with Bacillus thuringiensis. Description: Antibacterial activity against Bacillus thuringiensis BMB171 after 120 mins by agar well diffusion method. The experiment is classed as functional. The note with it: BMB171, 2 h.
For another experiment, the system named is Staphylococcus sciuri. Briefly: Antibacterial activity against Staphylococcus sciuri Bom1 after 120 mins by agar well diffusion method. Conditions: Bom1, 2 h.
Another experiment deals with Microbacterium. Briefly: Antibacterial activity against Microbacterium Pri2 after 120 mins by agar well diffusion method. The experiment is classed as functional. The note with it: Pri2, 2 h.
The next experiment deals with Bacillus pumilus. Description: Antibacterial activity against Bacillus pumilus SCG I after 120 mins by agar well diffusion method. The format is functional. Conditions: 2 h.
Experiment [18] has as its system Bacillus subtilis. Briefly: Antibacterial activity against Bacillus subtilis 168 after 120 mins by agar well diffusion method. The format is functional. The note with it: subsp. subtilis str. 168, 2 h.
For the next experiment, the system named is Bacillus firmus. Description: Antibacterial activity against Bacillus firmus BCRC 11944 after 120 mins by agar well diffusion method. The format is functional. Conditions: Cytobacillus firmus, BCRC 11944, 2 h.
A further experiment relates to Bacillus cereus. Description: Antibacterial activity against Bacillus cereus UW85 after 120 mins by agar well diffusion method. Conditions: UW85, 2 h. The format is functional.

Values after ≈ are worked out from the molar mass of the structure shown.

As usually defined, the MIC is the lowest concentration that inhibits growth of the organism.

Regarding `C=C(NC(=O)[C@@H](NC(=O)[C@H](CCCCN)NC(=O)[C@H]1CSC(C)C2NC(=O)[C@H](CC(C)C)NC(=O)C(NC(=O)[C@@H](CCC(N)=O)NC(=O)[C@@H](CC(C)C)NC(=O)[C@@H](Cc3ccccc3)NC(=O)[C@H]3CSC(C)C(NC(=O)[C@@H](NC(=O)[C@H]4CSC(C)C(NC(=O)[C@H]5CSC[C@@H](NC(=O)[C@@H](CCCCN)NC(=O)[C@H](Cc6c[nH]c7ccccc67)NC(=O)CCC(=O)O)C(=O)N[C@H](CCC(=O)O)C(=O)NC(=C)C(=O)N[C@H](CC(C)C)C(=O)N5)C(=O)N5CCC[C@H]5C(=O)NCC(=O)N4)C(C)C)C(=O)NCC(=O)N[C@H](C)C(=O)N[C@H](CC(C)C)C(=O)N[C@H](CCC(N)=O)C(=O)N/C(=C\C)C(=O)N3)C(C)SC[C@H](NC2=O)C(=O)N[C@@H](CC(N)=O)C(=O)N1)[C@@H](C)CC)C(=O)N[C@H](CCCCN)C(=O)O` (stereo not given in full), the MIC against Lactococcus lactis was determined as 5.55 µM (≈ 19 µg/mL); against Micrococcus luteus [1] it was 0.0994 µM (≈ 0.34 µg/mL).

`C=C1NC(=O)C2NC(=O)[C@H](CC(C)C)NC(=O)C(NC(=O)[C@@H]3CSC(C)[C@H](NC(=O)[C@H](Cc4ccccc4)NC(=O)C4NC(=O)[C@@H](N)CSC4C)C(=O)N[C@@H](CC(C)C)C(=O)N4CCC[C@H]4C(=O)NCC(=O)NCC(=O)NCC(=O)NCC(=O)N[C@@H](C(C)C)C(=O)N3)C(C)SC[C@@H](NC(=O)[C@H](CCC(=O)O)NC1=O)C(=O)N[C@@H]([C@H](C)CC)C(=O)N/C=C/SC2C` (stereo not given in full): the MIC against Staphylococcus aureus [2] was found to be 0.548 µM (≈ 1 µg/mL); in the experiment with Enterococcus faecium [4], 17.5 µM (≈ 32 µg/mL); against Micrococcus luteus [5] it was 0.657 µM (≈ 1.2 µg/mL); with Streptococcus pneumoniae, 1.1 µM (≈ 2 µg/mL); with Enterococcus faecium [6], 35.1 µM (≈ 64 µg/mL); with Staphylococcus aureus [7], 16.4 µM (≈ 30 µg/mL). The MIC was 17.5 µM (≈ 32 µg/mL) against Staphylococcus aureus [9]; 8.94 µM (≈ 16.3 µg/mL) in experiment [10]; 35.1 µM (≈ 64 µg/mL) in the experiment with Enterococcus faecalis [11]; 19.2 µM (≈ 35 µg/mL) with Staphylococcus aureus [12]; 17.5 µM (≈ 32 µg/mL) with Staphylococcus aureus [13]. For the same compound, the Ratio is 35 in the experiment with Staphylococcus aureus [3] and 2 in experiment [8].

`C=C1NC(=O)[C@@H]2CSC(C)C(NC(=O)[C@@H]3CSC(C)C4NC(=O)CNC(=O)C(NC(=O)[C@H](CCCCN)NC(=O)[C@@H]5CSC[C@H](NC(=O)[C@@H](NC(=O)[C@H](CCCCN)NC(=O)[C@@H](NC(=O)[C@@H](NC(=O)/C(=C/C)NC(=O)/C(=C\C)NC(=O)[C@H](Cc6c[nH]c7ccccc67)NC(=O)C(=O)CC)[C@@H](C)CC)C(C)C)C(C)C)C(=O)N[C@@H](CCCCN)C(=O)N[C@@H](C)C(=O)N[C@@H](C(C)C)C(=O)N5)C(C)SC[C@H](NC4=O)C(=O)N[C@@H]([C@@H](C)CC)C(=O)N3)C(=O)N/C(=C\C)C(=O)N[C@@H](CSC[C@@H](C(=O)N[C@@H](CCCCN)C(=O)O)NC(=O)[C@H](CC(N)=O)NC1=O)C(=O)N2` (stereo not given in full): the MIC in the experiment on Bacillus subtilis [14] was determined as 5.2 µM (≈ 14.5 µg/mL); against Enterococcus faecalis [15], 2.6 µM (≈ 7.25 µg/mL); in the experiment with Bacillus thuringiensis [16], 1.3 µM (≈ 3.62 µg/mL); in the experiment with Bacillus thuringiensis [17], 1.3 µM (≈ 3.62 µg/mL); against Staphylococcus sciuri it was 1.95 µM (≈ 5.44 µg/mL); in the experiment on Microbacterium it was 5.2 µM (≈ 14.5 µg/mL). Besides, the MIC stood at 0.65 µM (≈ 1.81 µg/mL) in the experiment on Bacillus pumilus, 5.2 µM (≈ 14.5 µg/mL) with Bacillus subtilis [18], 0.326 µM (≈ 0.909 µg/mL) against Bacillus firmus and 7.8 µM (≈ 21.7 µg/mL) in the experiment with Bacillus cereus.
